The record followed here is patent US9212130B2, “Heterocyclic derivative and pharmaceutical composition comprising the same” (SHIONOGI & CO., LTD., priority 2010, dated 2015).

The structures appear in SMILES notation.

The target in data set [1] is CYP3A4 (Homo sapiens (Human), UniProt P08684). In words: CYP inhibition test, terfenedine hydroxylation. To be noted: pooled human hepatic microsome; 1 μmol/L terfenedine; given as 'five kinds'. It is filed as in vitro ADME. Here is the method:
(§1) Using commercially available pooled human hepatic microsome, and employing, as markers, 7-ethoxyresorufin O-deethylation (CYP1A2), tolbutamide methyl-hydroxylation (CYP2C9), mephenyloin 4′-hydroxylation (CYP2C19), dextromethorphan O-demethylation (CYP2D6), and terfenedine hydroxylation as typical substrate metabolism reactions of human main five ([…] enzyme forms (CYP1A2, 2C9, 2C19, 2D6, 3A4), an inhibitory degree of each metabolite production amount by a test compound was assessed.
(§2) The reaction conditions were as follows: substrate, 0.5 μmol/L ethoxyresorufin (CYP1A2), 100 μmol/L tolbutamide (CYP2C9), 50 μmol/L S-mephenitoin (CYP2C19), 5 μmol/L dextromethorphan (CYP2D6), 1 μmol/L terfenedine (CYP3A4); reaction time, 15 minutes; reaction temperature, 37° C.; enzyme, pooled human hepatic microsome 0.2 mg protein/mL; test drug concentration, 1.0. 5.0, 10, 20 μmol/L (four points).
(§3) Each five kinds of substrates, human hepatic microsome, or a test drug in 50 mmol/L Hepes buffer as a reaction solution was added to a 96-well plate at the composition as described above. NADPH, as a cofactor was added to initiate metabolism reactions as markers and, after the incubation at 37° C. for 15 minutes, a methanol/acetonitrile=1/1 (v/v) solution was added to stop the reaction. After the centrifugation at 3000 rpm for 15 minutes, resorufin (CYP1A2 metabolite) in the supernatant was quantified by a fluorescent multilabel counter and tributamide hydroxide (CYP2CP metabolite), mephenyloin 4′ hydroxide (CYP2C19 metabolite), […], and terfenadine alcohol (CYP3A4 metabolite) were quantified by LC/MS/MS.
(§4) Addition of only DMSO being a solvent dissolving a drug to a reaction system was adopted as a control (100%), remaining activity (%) was calculated at each concentration of a test drug added as the solution and IC50 was calculated by reverse presumption by a logistic model using a concentration and an inhibition rate.

Data set [2] in a line: Bioavailability (BA) test. In kind it is in vivo. As to conditions: plasma; Mice or SD rats; oral 0.3 to 30 mg/kg vs intravenous 0.5 to 10 mg/kg; from AUCs. How it is done: Materials and Methods for Experiment of BA
• (1) Animals: Mice or SD rats were used • (2) Breeding conditions: Mice or SD rats were allowed to freely take solid food and sterilized tap water. • (3) Dose and grouping: orally or intravenously administered at a predetermined dose; grouping was as follows (Dose depends on the compound) Oral administration: 0.3 to 30 mg/kg (n=2 to 3) Intravenous administration: 0.5 to 10 mg/kg (n=2 to 3) • (4) Preparation of dosing solution: for oral administration, in a solution or a suspension state; for intravenous administration, in a solubilized state • (5) Administration method: in oral administration, forcedly administer into ventriculus with oral probe; in intravenous administration, administer from caudal vein with a needle-equipped syringe • (6) Evaluation items: blood was collected over time, and the plasma concentration of drug was measured by LC/MS/MS • (7) Statistical analysis: regarding the transition of the plasma concentration of the present compound, the area under the plasma concentration-time curve (AUC) was calculated by non-linear least squares program WinNonlin (Registered trade name), and the bioavailability (BA) was calculated from the AUCs of the oral administration group and intravenous administration group

The target of data set [3] is CYP2C9 (Homo sapiens (Human), UniProt P11712). The data set can be described thus: CYP inhibition test, tolbutamide methyl-hydroxylation. It is filed as in vitro ADME. As to conditions: pooled human hepatic microsome; 100 μmol/L tolbutamide; given as 'five kinds'. Here is the method: as §1, §2, §3, §4
Data set [4] deals with CYP1A2 (Homo sapiens (Human), UniProt P05177). In words: CYP inhibition test, 7-ethoxyresorufin O-deethylation. It is filed as in vitro ADME. As to conditions: pooled human hepatic microsome; 0.5 μmol/L ethoxyresorufin; given as 'five kinds'. Here is the method:
as §1, §2, §3, §4

The nature of data set [5]: Metabolism stability test (pooled human hepatic microsomes). It is filed as in vitro ADME. As to conditions: human liver microsomes 0.5 mg protein/mL; 37° C., 30 minutes; 1 mmol/L NADPH; compound concentration 0.5 μmol/L. How it is done:
Using commercially available pooled human hepatic microsomes, a test compound was reacted for a constant time, a remaining rate was calculated by comparing a reacted sample and an unreacted sample, thereby, a degree of metabolism in liver was assessed.
A reaction was performed (oxidative reaction) at 37° C. for 0 minute or 30 minutes in the presence of 1 mmol/L NADPH in 0.2 mL of a buffer (50 mmol/L tris-HCl pH 7.4, 150 mmol/L potassium chloride, 10 mmol/L magnesium chloride) containing 0.5 mg protein/mL of human liver microsomes. After the reaction, 50 μL of the reaction solution was added to 100 μL of a methanol/acetonitrile 1/1 (v/v), mixed and centrifuged at 3000 rpm for 15 minutes. The test compound in the supernatant was quantified by LC/MS/MS, and a remaining amount of the test compound after the reaction was calculated, letting a compound amount at 0 minute reaction time to be 100%.

The target in data set [6] is human P2X3 receptor (Homo sapiens (Human), UniProt P56373). The data set can be described thus: Evaluation of human P2X3 receptor inhibitory activity (ATP-induced Fluo-3 fluorescence, FDSS 3000). It is filed as cell-based. As to conditions: C6BU-1 cell transfected with human P2X3 receptor gene. In a few lines:
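Human P2X3 inhibition read as ATP-evoked Fluo-3 calcium fluorescence; compound preincubated, then 50 nM ATP solution (concentration as dispensed) added and fluorescence followed 3 min. Response taken as peak-to-baseline fluorescence ratio per well; IC50 derived from concentration–response.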

A short description of data set [7]: Solubility test. As to conditions: artificial intestinal juice (phosphate buffer) with 1% DMSO, 25 °C, other biorelevant, kinetic from dmso stock, artificial intestinal juice in pH 8.8, 25 degrees Celsius for 16 hours. It is filed as physicochemical. Here is the method: The solubility of a compound was determined under a condition in which 1% DMSO was added. 10 mmol/L compound solution was prepared using DMSO, and then 6 μL of the compound solution was added to 594 μL of artificial intestinal juice in […] (to 250 mL of 0.2 mol/L potassium dihydrogen phosphate reagent solution was added 118 mL of 0.2 mol/L NaOH reagent solution and water to provide a final volume of 1000 mL). After standing at 25 degrees Celsius for 16 hours, the mixed solution was filtrated with suction. The filtrate was diluted twice with methanol/water (1/1) and then a concentration in the filtration was measured with HPLC or LC/MS/MS by the absolute calibration method.

The target in data set [8] is CYP2C19 (Homo sapiens (Human), UniProt P33261). The data set can be described thus: CYP inhibition test, mephenyloin 4'-hydroxylation. In kind it is in vitro ADME. As to conditions: pooled human hepatic microsome; 50 μmol/L S-mephenitoin; given as 'five kinds'. How it is done: as §1, §2, §3, §4
Chain of CYP2C19 (P33261 whole entry): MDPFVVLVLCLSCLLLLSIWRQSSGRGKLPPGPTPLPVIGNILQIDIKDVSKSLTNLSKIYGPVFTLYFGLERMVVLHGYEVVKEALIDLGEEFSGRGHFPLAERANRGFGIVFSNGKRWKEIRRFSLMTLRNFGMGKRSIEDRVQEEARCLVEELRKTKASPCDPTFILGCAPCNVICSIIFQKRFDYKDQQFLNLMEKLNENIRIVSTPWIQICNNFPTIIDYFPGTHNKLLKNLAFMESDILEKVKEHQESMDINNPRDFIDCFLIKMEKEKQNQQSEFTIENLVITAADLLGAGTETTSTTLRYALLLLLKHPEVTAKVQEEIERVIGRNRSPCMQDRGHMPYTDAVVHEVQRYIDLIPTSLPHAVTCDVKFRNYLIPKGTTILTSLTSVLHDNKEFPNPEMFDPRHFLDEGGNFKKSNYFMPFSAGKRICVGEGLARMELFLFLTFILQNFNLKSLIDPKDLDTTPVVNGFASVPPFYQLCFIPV

Chain of CYP3A4 (P08684 whole entry): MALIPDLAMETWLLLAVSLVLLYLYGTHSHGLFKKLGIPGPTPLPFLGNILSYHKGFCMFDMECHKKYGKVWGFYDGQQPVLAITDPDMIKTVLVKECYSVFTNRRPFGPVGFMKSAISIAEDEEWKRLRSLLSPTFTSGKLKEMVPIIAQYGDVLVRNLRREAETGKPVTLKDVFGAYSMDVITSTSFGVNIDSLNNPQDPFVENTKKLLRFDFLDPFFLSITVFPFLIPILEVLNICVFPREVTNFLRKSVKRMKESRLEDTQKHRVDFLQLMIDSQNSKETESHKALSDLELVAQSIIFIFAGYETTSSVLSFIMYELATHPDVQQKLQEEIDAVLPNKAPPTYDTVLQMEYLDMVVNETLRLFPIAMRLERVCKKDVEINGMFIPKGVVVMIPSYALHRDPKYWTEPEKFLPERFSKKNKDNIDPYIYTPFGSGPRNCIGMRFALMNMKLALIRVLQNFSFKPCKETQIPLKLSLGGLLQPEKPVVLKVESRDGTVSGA
Chain of CYP1A2 (P05177 whole entry): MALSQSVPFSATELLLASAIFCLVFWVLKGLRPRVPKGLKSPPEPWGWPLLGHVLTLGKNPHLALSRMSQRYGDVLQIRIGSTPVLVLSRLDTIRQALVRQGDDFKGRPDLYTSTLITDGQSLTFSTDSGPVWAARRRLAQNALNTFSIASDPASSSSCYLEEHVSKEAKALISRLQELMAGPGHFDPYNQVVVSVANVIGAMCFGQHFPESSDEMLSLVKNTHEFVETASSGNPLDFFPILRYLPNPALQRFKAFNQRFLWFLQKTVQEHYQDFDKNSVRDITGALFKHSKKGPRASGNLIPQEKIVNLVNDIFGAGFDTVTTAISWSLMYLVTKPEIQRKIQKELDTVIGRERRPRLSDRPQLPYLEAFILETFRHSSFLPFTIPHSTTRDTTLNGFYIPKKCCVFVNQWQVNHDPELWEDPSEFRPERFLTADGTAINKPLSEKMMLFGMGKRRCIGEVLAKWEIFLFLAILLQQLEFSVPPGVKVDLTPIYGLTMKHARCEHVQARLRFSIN
Chain of CYP2C9 (P11712 whole entry): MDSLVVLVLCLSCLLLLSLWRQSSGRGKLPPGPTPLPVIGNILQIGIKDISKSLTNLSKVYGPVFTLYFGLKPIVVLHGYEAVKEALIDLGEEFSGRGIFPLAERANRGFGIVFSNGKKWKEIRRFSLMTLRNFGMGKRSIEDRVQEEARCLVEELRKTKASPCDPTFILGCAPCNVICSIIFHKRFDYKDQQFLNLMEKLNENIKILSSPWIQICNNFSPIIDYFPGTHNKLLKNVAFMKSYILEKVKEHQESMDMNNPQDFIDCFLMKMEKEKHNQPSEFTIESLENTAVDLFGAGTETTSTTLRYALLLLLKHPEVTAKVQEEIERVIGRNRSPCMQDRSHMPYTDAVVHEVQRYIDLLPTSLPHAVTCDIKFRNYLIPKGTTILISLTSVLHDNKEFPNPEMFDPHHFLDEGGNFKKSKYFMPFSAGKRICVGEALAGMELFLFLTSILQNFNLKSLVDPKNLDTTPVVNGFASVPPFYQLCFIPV
Chain of human P2X3 receptor (P56373 whole entry): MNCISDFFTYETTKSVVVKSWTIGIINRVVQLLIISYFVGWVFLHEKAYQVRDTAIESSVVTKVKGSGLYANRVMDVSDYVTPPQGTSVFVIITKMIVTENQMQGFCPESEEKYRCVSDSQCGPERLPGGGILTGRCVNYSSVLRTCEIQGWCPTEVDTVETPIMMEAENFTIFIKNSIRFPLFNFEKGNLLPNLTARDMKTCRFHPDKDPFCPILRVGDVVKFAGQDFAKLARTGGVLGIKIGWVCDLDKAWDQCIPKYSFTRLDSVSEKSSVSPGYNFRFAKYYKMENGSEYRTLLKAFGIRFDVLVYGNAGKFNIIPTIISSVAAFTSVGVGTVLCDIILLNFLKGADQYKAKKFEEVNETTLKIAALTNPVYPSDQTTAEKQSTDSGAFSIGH

With `CC(C)Oc1ccc(Nc2cc(=O)n(C[C@H](C)C(=O)O)c(=O)n2Cc2ccc(Cl)cc2)cc1Cl` [I-100], the IC50 in data set [1] was more than 20 µM; in data set [3], more than 20 µM; in data set [4], more than 20 µM; in data set [6] it was 0.009 µM; in data set [8] it was more than 20 µM. In data set [2], the bioavailability came out at 29.2%. Besides, the remaining rate in data set [5] amounted to 101%. The compound also registered a solubility at 16 h in data set [7] of more than 50 µM.
